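Assay format: 96-well plates, 48-hour exposure. GI50 marks 50% less growth.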 Active and inactive are the calls of the source. Rule as the data show it: active = GI50 up to about 1.1 µM and inactive = higher.
Key:
Experiment in all cases: NCI anticancer screen, dose series, 48 h
786-0 = tested on: 786-0
A498 = tested on: A498
A549 = tested on: A549
ACHN = tested on: ACHN
BT-549 = tested on: BT-549
CAKI-1 = tested on: CAKI-1
CCRF-CEM = tested on: CCRF-CEM
COLO 205 = tested on: COLO 205
DU-145 = tested on: DU-145
EKVX = tested on: EKVX
HCC 2998 = tested on: HCC 2998
HCT-116 = tested on: HCT-116
HCT-15 = tested on: HCT-15
HL-60 = tested on: HL-60
HOP-62 = tested on: HOP-62
HOP-92 = tested on: HOP-92
HT-29 = tested on: HT-29
Hs-578T = tested on: Hs-578T
IGROV-1 = tested on: IGROV-1
KM12 = tested on: KM12
LOX IMVI = tested on: LOX IMVI
M14 = tested on: M14
MCF7 = tested on: MCF7
MDA-MB-231 = tested on: MDA-MB-231
MDA-MB-435 = tested on: MDA-MB-435
MDA-N = tested on: MDA-N
MOLT-4 = tested on: MOLT-4
Malme-3M = tested on: Malme-3M
NCI-H226 = tested on: NCI-H226
NCI-H23 = tested on: NCI-H23
NCI-H522 = tested on: NCI-H522
NCI/ADR-RES = tested on: NCI/ADR-RES
OVCAR-3 = tested on: OVCAR-3
OVCAR-4 = tested on: OVCAR-4
OVCAR-5 = tested on: OVCAR-5
OVCAR-8 = tested on: OVCAR-8
PC-3 = tested on: PC-3
RPMI-8226 = tested on: RPMI-8226
RXF 393 = tested on: RXF 393
SF-268 = tested on: SF-268
SF-295 = tested on: SF-295
SF-539 = tested on: SF-539
SK-MEL-28 = tested on: SK-MEL-28
SK-MEL-2 = tested on: SK-MEL-2
SK-MEL-5 = tested on: SK-MEL-5
SK-OV-3 = tested on: SK-OV-3
SN12C = tested on: SN12C
SNB-19 = tested on: SNB-19
SNB-75 = tested on: SNB-75
SR = tested on: SR
SW-620 = tested on: SW-620
T47D = tested on: T47D
TK-10 = tested on: TK-10
U-251 = tested on: U-251
UACC-257 = tested on: UACC-257
UACC-62 = tested on: UACC-62
UO-31 = tested on: UO-31
K562 = tested on: K562
NCI-H460 = tested on: NCI-H460

For `COc1c2c(cc3c1OCO3)C13C=CC(OC)CC1N(CC3)C2.[O-][Cl+3]([O-])([O-])O` (centres undefined), the GI50 (786-0) was > 100 µM (inactive), the GI50 (A498) was > 100 µM (inactive) and the GI50 (A549) was > 100 µM (inactive). For the same compound, the GI50 (ACHN) was > 100 µM (inactive), the GI50 (BT-549) was > 100 µM (inactive) and the GI50 (CAKI-1) was > 100 µM (inactive). For the same compound, the GI50 (CCRF-CEM) was > 100 µM (inactive), the GI50 (COLO 205) was 35.6 µM (inactive) and the GI50 (DU-145) was > 100 µM (inactive). For the same compound, the GI50 (EKVX) was > 100 µM (inactive), the GI50 (HCC 2998) was 90.8 µM (inactive) and the GI50 (HCT-116) was > 100 µM (inactive). The GI50 (HCT-15) was 28.4 µM, the GI50 (HL-60) was 39.4 µM (inactive) and the GI50 (HOP-62) was > 100 µM (inactive). For the same compound, the GI50 (HOP-92) was > 100 µM (inactive), the GI50 (HT-29) was 71 µM (inactive) and the GI50 (Hs-578T) was > 100 µM (inactive). For the same compound, the GI50 (IGROV-1) was > 100 µM (inactive), the GI50 (KM12) was 51.1 µM (inactive) and the GI50 (LOX IMVI) was > 100 µM (inactive). For the same compound, the GI50 (M14) was > 100 µM (inactive), the GI50 (MCF7) was > 100 µM (inactive) and the GI50 (MDA-MB-231) was > 100 µM (inactive). The GI50 (MDA-MB-435) was 34.3 µM (inactive), the GI50 (MDA-N) was 37.3 µM (inactive) and the GI50 (MOLT-4) was 36.4 µM (inactive). The GI50 (Malme-3M) was > 100 µM (inactive), the GI50 (NCI-H226) was > 100 µM (inactive) and the GI50 (NCI-H23) was > 100 µM (inactive). The GI50 (NCI-H522) was > 100 µM (inactive), the GI50 (NCI/ADR-RES) was > 100 µM (inactive) and the GI50 (OVCAR-3) was > 100 µM (inactive). For the same compound, the GI50 (OVCAR-4) was 49.3 µM (inactive), the GI50 (OVCAR-5) was > 100 µM (inactive) and the GI50 (OVCAR-8) was > 100 µM (inactive). For the same compound, the GI50 (PC-3) was > 100 µM (inactive), the GI50 (RPMI-8226) was > 100 µM (inactive) and the GI50 (RXF 393) was > 100 µM (inactive). For the same compound, the GI50 (SF-268) was > 100 µM (inactive), the GI50 (SF-295) was > 100 µM (inactive) and the GI50 (SF-539) was > 100 µM (inactive). For the same compound, the GI50 (SK-MEL-28) was > 100 µM (inactive), the GI50 (SK-MEL-2) was > 100 µM (inactive) and the GI50 (SK-MEL-5) was 29 µM (inactive). For the same compound, the GI50 (SK-OV-3) was > 100 µM (inactive), the GI50 (SN12C) was > 100 µM (inactive) and the GI50 (SNB-19) was > 100 µM (inactive). The GI50 (SNB-75) was > 100 µM (inactive), the GI50 (SR) was 4.9 µM (inactive) and the GI50 (SW-620) was > 100 µM (inactive). For the same compound, the GI50 (T47D) was > 100 µM (inactive), the GI50 (TK-10) was > 100 µM (inactive) and the GI50 (U-251) was > 100 µM (inactive). For the same compound, the GI50 (UACC-257) was > 100 µM (inactive), the GI50 (UACC-62) was > 100 µM (inactive) and the GI50 (UO-31) was > 100 µM (inactive).

For `CCOC(=O)NC(Nc1c(F)c(F)c(F)c(F)c1F)(C(F)(F)F)C(F)(F)F`, the GI50 (786-0) was > 100 µM (inactive), the GI50 (A498) was > 100 µM (inactive) and the GI50 (A549) was > 100 µM (inactive). The GI50 (ACHN) was > 100 µM (inactive), the GI50 (BT-549) was > 100 µM (inactive) and the GI50 (CAKI-1) was > 100 µM (inactive). The GI50 (CCRF-CEM) was > 100 µM (inactive), the GI50 (COLO 205) was > 100 µM (inactive) and the GI50 (DU-145) was > 100 µM (inactive). For the same compound, the GI50 (EKVX) was > 100 µM (inactive), the GI50 (HCC 2998) was > 100 µM (inactive) and the GI50 (HCT-116) was > 100 µM (inactive). For the same compound, the GI50 (HCT-15) was greater than 100 µM, the GI50 (HL-60) was > 100 µM (inactive) and the GI50 (HOP-62) was > 100 µM (inactive). The GI50 (HOP-92) was > 100 µM (inactive), the GI50 (Hs-578T) was > 100 µM (inactive) and the GI50 (IGROV-1) was > 100 µM (inactive). The GI50 (K562) was > 100 µM (inactive), the GI50 (KM12) was > 100 µM (inactive) and the GI50 (LOX IMVI) was > 100 µM (inactive). The GI50 (M14) was > 100 µM (inactive), the GI50 (MCF7) was > 100 µM (inactive) and the GI50 (MDA-MB-231) was > 100 µM (inactive). The GI50 (MDA-MB-435) was > 100 µM (inactive), the GI50 (MDA-N) was > 100 µM (inactive) and the GI50 (MOLT-4) was > 100 µM (inactive). The GI50 (Malme-3M) was > 100 µM (inactive), the GI50 (NCI-H226) was > 100 µM (inactive) and the GI50 (NCI-H23) was > 100 µM (inactive). For the same compound, the GI50 (NCI-H460) was > 100 µM (inactive), the GI50 (NCI-H522) was > 100 µM (inactive) and the GI50 (NCI/ADR-RES) was > 100 µM (inactive). For the same compound, the GI50 (OVCAR-3) was > 100 µM (inactive), the GI50 (OVCAR-5) was > 100 µM (inactive) and the GI50 (OVCAR-8) was > 100 µM (inactive). The GI50 (PC-3) was > 100 µM (inactive), the GI50 (RPMI-8226) was > 100 µM (inactive) and the GI50 (RXF 393) was > 100 µM (inactive). For the same compound, the GI50 (SF-268) was > 100 µM (inactive), the GI50 (SF-295) was > 100 µM (inactive) and the GI50 (SF-539) was > 100 µM (inactive). For the same compound, the GI50 (SK-MEL-28) was > 100 µM (inactive), the GI50 (SK-MEL-2) was > 100 µM (inactive) and the GI50 (SK-MEL-5) was > 100 µM (inactive). For the same compound, the GI50 (SK-OV-3) was > 100 µM (inactive), the GI50 (SN12C) was > 100 µM (inactive) and the GI50 (SNB-19) was > 100 µM (inactive). For the same compound, the GI50 (SNB-75) was > 100 µM (inactive), the GI50 (SR) was > 100 µM (inactive) and the GI50 (SW-620) was > 100 µM (inactive). For the same compound, the GI50 (T47D) was > 100 µM (inactive), the GI50 (TK-10) was > 100 µM (inactive) and the GI50 (U-251) was > 100 µM (inactive). For the same compound, the GI50 (UACC-257) was > 100 µM (inactive), the GI50 (UACC-62) was > 100 µM (inactive) and the GI50 (UO-31) was > 100 µM (inactive).

From ChEMBL document CHEMBL1201862, “PubChem BioAssay data set” (2004)
